Here are results for one compound from US20220241236A1, “DIETARY BUTYRATE AND ITS USES” (SOCIETE DES PRODUITS NESTLE S.A., priority 2019, published 2022).

Entries after “also recorded” stand apart in the source; their conditions may differ.

Series [1] concerns the target T1, porcine pancreatic lipase (from pancreatin) (Sus scrofa, UniProt P00591).
T1 construct: pancreatin (Porcine, USP×8, P7585); purchased Sigma-Aldrich P7585; host or cells: porcine pancreas extract (pancreatin)
T1 sequence (P00591 1-450): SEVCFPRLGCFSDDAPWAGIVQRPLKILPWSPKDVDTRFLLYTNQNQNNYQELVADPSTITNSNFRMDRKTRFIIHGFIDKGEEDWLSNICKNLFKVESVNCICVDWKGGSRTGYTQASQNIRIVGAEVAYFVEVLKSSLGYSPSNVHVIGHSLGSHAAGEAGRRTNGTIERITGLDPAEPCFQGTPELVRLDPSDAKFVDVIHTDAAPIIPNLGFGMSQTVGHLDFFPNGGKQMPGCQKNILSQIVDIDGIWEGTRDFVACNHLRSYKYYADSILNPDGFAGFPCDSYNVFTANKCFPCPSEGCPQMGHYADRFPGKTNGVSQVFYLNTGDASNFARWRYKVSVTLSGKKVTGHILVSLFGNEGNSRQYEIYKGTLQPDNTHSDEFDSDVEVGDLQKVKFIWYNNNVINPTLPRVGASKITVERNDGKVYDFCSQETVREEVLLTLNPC
T1 sequence (P02703 23-112 partner): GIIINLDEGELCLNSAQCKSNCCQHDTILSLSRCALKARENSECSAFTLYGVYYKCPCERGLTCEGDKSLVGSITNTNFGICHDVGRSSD
As to the kind of experiment: In vitro lipolysis in simulated intestinal fluid (SIF model), pH-stat. It counts as in vitro ADME. The conditions noted are these: SIF alone; emulsion with 200 mg fat; pH 6.8, 37° C.
Description: (§1) 10 wt % oil in water emulsions stabilised by 0.3 wt % polyoxyethylene sorbitan mono-oleate (Tween® 80) were prepared by mixing the Tween 80 into the oil phase at 40° C., then mixing with the water phase using a magnetic stirrer. An emulsion was then created using a Hielscher UP 400S ultrasonic probe homogeniser equipped with a 5 mm diameter rod-like probe by applying 100% amplitude at 100% cycle for 2 minutes whilst the sample was cooled using ice water.
(§2) The lipid emulsion (2 mL) containing 200 mg of fat was subjected to gastrointestinal in vitro lipolysis. […] For gastric digestion, the sample was incubated for 90 minutes with 8.5 mL of simulated gastric fluid (SGF), which consisted of 150 mM NaCl, 450 U/mL pepsin, 18 U/mL rabbit gastric lipase at 37° C. and a pH of 5.5.
The intestinal digestion step was performed in the pH stat where the pH was kept constant at 6.8 by addition of NaOH (0.05 M). […] The intestinal digestion step starts when the temperature reaches 37±0.5° C. The pH was adjusted to pH 6.8 and after incubation of two minutes at this pH and temperature, a pancreatin solution (5 mM tris, 150 mM NaCl at pH 6.8) was added. […] During the intestinal phase of digestion, the kinetics of digestion were followed using a pH-stat (TIM856, Radiometer) technique and expressed as titratable acid (rather than fatty acid) that was calculated by the equation: […]

Series [2] relates to rabbit gastric lipase (RGL) followed by porcine pancreatic lipase (PPL). The experiment in a line: Sequential in vitro digestion SGF (RGL) followed by SIF (PPL), pH-stat. It counts as in vitro ADME.
Description: as §1, §2
The intestinal digestion step was performed in the pH stat where the pH was kept constant at 6.8 by addition of NaOH (0.05 M). […] The intestinal digestion step starts when the temperature reaches 37±0.5° C. The pH was adjusted to pH 6.8 and after incubation of two minutes at this pH and temperature, a pancreatin solution (5 mM tris, 150 mM NaCl at pH 6.8) was added. The final composition of the intestinal fluid was 10 mM CaCl2, 12 mM mixed bile salts, 0.75 mM phospholipid, 150 mM NaCl and 4 mM tris(hydroxymethyl)aminomethane buffer. The intestinal digestion step was carried out for 3 hours in a titration manager from Radiometer. During the intestinal phase of digestion, the kinetics of digestion were followed using a pH-stat (TIM856, Radiometer) technique and expressed as titratable acid (rather than fatty acid) that was calculated by the equation:
TA: Total titratable acid released, mmol; VNaoH: volume of NaOH used to titrate the released acid in 3 h, mL.

Turning to `CCCC(=O)OCC(COC(=O)CCC)OC(=O)CCC` [tributyrin], the “initial rate of lipolysis” value in series [1] was 223 ± 59 µmol/min. Moreover, in series [2] (SGF-SIF sequential digestion (after pre-exposure to RGL)), the “initial lipolysis rate in SIF” value turned out to be 44.1 ± 8.8 µmol/min. The “extent of gastric lipolysis / hydrolysis in the stomach” value in series [2] (gastric compartment of the model) is reported as “considerable digestion; also recorded: extensive hydrolysis in the stomach”. Also, the “lipolysis by gastric lipase” value in series [2] (indicated by decreased total fatty acid release in SIF after RGL pre-exposure) is given as roughly 60%.
